In patent US20080051330A1, “Inhibitors of serine protease activity, methods and compositions for treatment of herpes viruses” (priority 1999, published 2008):
* marks the point of attachment. Cbz = O=C(OCc1ccccc1)*; CHN2 = [N-]=[N+]=C*

B1: Cystatin C: human cysteine proteinase inhibitor present in extracellular fluids (protein, UniProt P01034 27-146, looked up)
Cystatin-C: SSPGKPPRLVGGPMDASVEEEGVRRALDFAVGEYNKASNDMYHSRALQVVRARKQIVAGVNYFLDVELGRTTCTKTQPNLDNCPFHDQPHLKRKAFCSFQIYAVPWQGTMTLSKSTCQDA

Key:
[1] = tested on: Herpes simplex virus-2, strain MS; format: in vivo, SCID mouse; conditions: SCID mice; for survival rate: HSV-2 at 1000 times LD50 on abraded skin, topical, three times daily for 7 days from 2 hours after inoculation, compound 100 mg/kg, untreated control 20%
HSV [2] = experiment: Activity against HSV in vitro: ELISA with rabbit anti-HSV antibody in infected human lung fibroblast cells; format: cell-based, HSV-1 and HSV-2; conditions: HLF cells, virus absorbed in presence or absence of AAT
CMV = experiment: Activity against CMV in vitro: plaque reduction assay in human lung fibroblast cells; format: cell-based; conditions: HLF cells, plaques counted day 6-10 post-infection
HSV [3] = conditions: at molar concentration lower than that of acyclovir; cited from earlier work

Row | Molecule | survival rate [1] | effect on HSV by ELISA, optical density expressed as percent of control (HSV [2]) | reduction in number of CMV plaques (CMV) | percentage of mice surviving, in words, relative to vehicle control ([1]; HSV-2 at 1000 times LD50) | inhibitory effect on HSV replication (HSV [3])
1 | Nc1nc2c(ncn2COCCO)c(=O)[nH]1 [acyclovir, reference compound] | about 60% | – | – | – | –
2 | AAT: glycoprotein of MW 51,000 with 394 amino acids and 3 oligosaccharide side chains; serine protease inhibitor | about 60% | significant inhibitory effect | significant inhibitory effect | significantly greater | –
3 | Cbz-Leu-Val-Gly-CHN2 [reference compound] | – | – | – | – | strong inhibitory effects
4 | B1 | – | – | – | – | strong inhibitory effects
